In patent US20230053524A1, “FUNGICIDES TO PREVENT AND CONTROL FUNGAL PATHOGENS” (priority 2020, published 2023):
pEC50: −log10 of the molar value.

Tests used:
Format in all cases: cell-based
Conditions in all cases: 168 h, read-out: ED50
[1] = system: Plectosphaerella cucumerina; assay: In vitro bioassay, mycelia growth on PDA (Example 1)
[2] = system: Fusarium graminearum; assay: microbe, parasite or virus in culture
[3] = system: Alternaria radicina; assay: In vitro bioassay, mycelia growth on PDA (Example 1)

Row | SMILES | pEC50 [1] | pEC50 [2] | pEC50 [3]
1 | CS(=O)(=O)CCCCCCCCN=C=S [0/100, 1-Isothiocyanato-8-(methylsulfonyl)-octane] | 3.32 | 3.27 | 3.12
2 | C[S+]([O-])CCCCCCCCN=C=S (stereo not drawn) [100/0, 1-Isothiocyanato-8-(methylsulfinyl)-octane] | 3.51 | 3.48 | 3.64
